According to ChEMBL document CHEMBL1135288, “Anthranilate sulfonamide hydroxamate TACE inhibitors. Part 1: Structure-based design of novel acetylenic P1' groups” (Bioorg Med Chem Lett, 2002):

How the values were obtained:
[1] = biological target: T1, Interstitial collagenase (Homo sapiens) (UniProt P03956); assay: Inhibition of Matrix metalloprotease-1 at 10 uM
T1 sequence (whole entry): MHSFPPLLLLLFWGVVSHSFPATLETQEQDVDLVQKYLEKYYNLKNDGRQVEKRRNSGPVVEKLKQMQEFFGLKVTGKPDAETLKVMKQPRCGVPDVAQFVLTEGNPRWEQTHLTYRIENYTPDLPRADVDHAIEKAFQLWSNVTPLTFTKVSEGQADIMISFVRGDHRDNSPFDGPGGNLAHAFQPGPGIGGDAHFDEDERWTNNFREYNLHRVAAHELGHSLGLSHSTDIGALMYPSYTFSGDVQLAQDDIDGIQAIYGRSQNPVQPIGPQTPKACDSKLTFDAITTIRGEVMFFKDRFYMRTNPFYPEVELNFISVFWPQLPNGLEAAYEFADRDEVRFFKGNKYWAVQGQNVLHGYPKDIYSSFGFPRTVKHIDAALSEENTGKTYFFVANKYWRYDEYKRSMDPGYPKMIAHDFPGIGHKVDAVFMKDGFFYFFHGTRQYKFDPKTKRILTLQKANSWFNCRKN

[2] = biological target: Disintegrin and metalloproteinase domain-containing protein 17 (Sus scrofa, UniProt O77636); assay: Inhibition of porcine Tumor necrosis factor alpha converting enzyme
Sequence of Disintegrin and metalloproteinase domain-containing protein 17 (O77636 whole entry, the tested form may be a part): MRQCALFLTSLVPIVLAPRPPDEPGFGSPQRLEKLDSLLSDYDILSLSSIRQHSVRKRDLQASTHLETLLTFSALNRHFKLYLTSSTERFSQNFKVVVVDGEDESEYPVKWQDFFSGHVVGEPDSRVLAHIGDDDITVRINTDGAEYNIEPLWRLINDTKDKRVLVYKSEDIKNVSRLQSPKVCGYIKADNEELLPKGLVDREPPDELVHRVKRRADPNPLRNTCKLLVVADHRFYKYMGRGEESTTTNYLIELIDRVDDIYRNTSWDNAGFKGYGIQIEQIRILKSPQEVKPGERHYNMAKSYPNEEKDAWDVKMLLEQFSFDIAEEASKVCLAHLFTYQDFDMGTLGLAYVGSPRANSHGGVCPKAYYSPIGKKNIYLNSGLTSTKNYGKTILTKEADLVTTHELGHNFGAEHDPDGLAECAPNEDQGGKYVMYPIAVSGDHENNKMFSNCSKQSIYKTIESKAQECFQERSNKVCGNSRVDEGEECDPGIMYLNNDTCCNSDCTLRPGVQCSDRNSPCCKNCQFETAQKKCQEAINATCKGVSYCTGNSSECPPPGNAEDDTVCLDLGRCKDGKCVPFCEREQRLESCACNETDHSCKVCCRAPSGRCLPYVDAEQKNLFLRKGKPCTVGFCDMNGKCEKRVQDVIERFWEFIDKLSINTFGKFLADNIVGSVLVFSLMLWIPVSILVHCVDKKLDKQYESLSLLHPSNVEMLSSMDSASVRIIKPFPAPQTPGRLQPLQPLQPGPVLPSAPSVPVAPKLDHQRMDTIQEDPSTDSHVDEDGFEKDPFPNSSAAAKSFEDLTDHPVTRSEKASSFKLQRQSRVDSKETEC

[3] = biological target: Matrix metalloproteinase-9 (Homo sapiens, UniProt P14780); assay: Inhibition of Matrix metalloprotease-9
Sequence of Matrix metalloproteinase-9 (P14780 whole entry): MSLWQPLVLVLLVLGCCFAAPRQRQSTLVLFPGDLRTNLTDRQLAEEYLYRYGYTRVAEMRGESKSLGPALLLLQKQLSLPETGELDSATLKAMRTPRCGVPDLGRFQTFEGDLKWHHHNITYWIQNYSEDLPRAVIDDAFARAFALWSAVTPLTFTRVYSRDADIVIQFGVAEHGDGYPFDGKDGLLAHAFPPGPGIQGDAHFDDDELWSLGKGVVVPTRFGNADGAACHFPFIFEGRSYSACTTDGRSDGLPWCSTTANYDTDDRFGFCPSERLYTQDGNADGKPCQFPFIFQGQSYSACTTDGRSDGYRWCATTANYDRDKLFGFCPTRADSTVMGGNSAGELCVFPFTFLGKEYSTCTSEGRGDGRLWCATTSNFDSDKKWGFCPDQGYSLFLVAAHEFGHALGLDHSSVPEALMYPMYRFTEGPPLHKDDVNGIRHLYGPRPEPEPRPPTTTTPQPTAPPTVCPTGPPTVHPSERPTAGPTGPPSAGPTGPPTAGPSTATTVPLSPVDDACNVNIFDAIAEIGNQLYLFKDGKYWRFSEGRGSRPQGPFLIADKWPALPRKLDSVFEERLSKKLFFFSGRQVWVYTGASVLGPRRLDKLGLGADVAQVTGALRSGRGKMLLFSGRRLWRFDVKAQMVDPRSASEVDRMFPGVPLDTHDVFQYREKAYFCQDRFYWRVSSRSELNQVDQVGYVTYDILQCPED

[4] = biological target: Collagenase 3 (Homo sapiens, UniProt P45452); assay: Inhibition of Matrix metalloprotease-13
[5] = biological target: T2, Interstitial collagenase (Homo sapiens, UniProt P03956); assay: Inhibition of Matrix metalloprotease-1
T2 sequence (P03956 whole entry): T1 sequence (whole entry)

inhibition [1] | IC50 [3] | IC50 [4] | IC50 [5] | Compound | IC50 [2]
53% | – | – | – | CCCCC#CCOc1ccc(S(=O)(=O)N(C)c2c(C)cc(Br)cc2C(=O)NO)cc1 | –
– | 21 nM | 68 nM | 2490 nM | CCCCOc1ccc(S(=O)(=O)N(C)c2c(C)cc(Br)cc2C(=O)NO)cc1 | 67 nM
– | – | – | – | C#CCOc1ccc(S(=O)(=O)N(C)c2c(C)cc(Br)cc2C(=O)NO)cc1 | 11 nM
